Source: patent US8546392B2, “17Beta-hydroxysteroid dehydrogenase type 1 inhibitors for the treatment of hormone-related diseases” (Universitaet des Saarlandes, priority 2008, dated 2013)
Where two headings read alike, the source gives them in different places.

How the values were obtained:
17β-HSD1 = 17β-HSD1 (Homo sapiens (Human), UniProt P14061); test: 17β-HSD1 test assay (recombinant protein from Sf9 insect cells, 3H-estrone/NADPH); format: biochemical; details: for inhibition at 1 µM: read-out: HSD 1 μM (% inhibition of HSD1); for inhibition at 0.1 µM: read-out: HSD1 100 nM (% inhibition)
Sequence of 17β-HSD1 (P14061 whole entry): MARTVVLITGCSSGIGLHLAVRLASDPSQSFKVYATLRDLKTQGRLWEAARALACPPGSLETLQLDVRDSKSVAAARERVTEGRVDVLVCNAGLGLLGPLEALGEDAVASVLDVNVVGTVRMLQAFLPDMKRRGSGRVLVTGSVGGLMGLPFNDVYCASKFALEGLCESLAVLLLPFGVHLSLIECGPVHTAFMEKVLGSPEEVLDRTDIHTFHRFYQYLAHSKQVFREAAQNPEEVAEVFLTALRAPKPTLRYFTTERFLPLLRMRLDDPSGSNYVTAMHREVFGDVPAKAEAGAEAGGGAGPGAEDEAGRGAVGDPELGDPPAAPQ
In short: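 Sf9-expressed recombinant enzyme (0.1 μg/ml) with 30 nM 3H-estrone and 1 mM NADPH in 20 mM KH2PO4 pH 7.4, 30 min at RT; inhibitor at 1 μM or 100 nM, 1% DMSO final. Quenched with TCA; conversion measured by reversed-phase HPLC with flow scintillation detection.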

17β-HSD2 = 17β-HSD2 (Homo sapiens (Human), UniProt P37059); test: 17β-HSD2 test assay (recombinant protein from Sf9 insect cells, 3H-estradiol/NAD+); format: biochemical; details: for inhibition at 0.1 µM: read-out: HSD2 100 nM (% inhibition); for inhibition at 1 µM: read-out: HSD2 1 μM (% inhibition)
Sequence of 17β-HSD2 (P37059 whole entry): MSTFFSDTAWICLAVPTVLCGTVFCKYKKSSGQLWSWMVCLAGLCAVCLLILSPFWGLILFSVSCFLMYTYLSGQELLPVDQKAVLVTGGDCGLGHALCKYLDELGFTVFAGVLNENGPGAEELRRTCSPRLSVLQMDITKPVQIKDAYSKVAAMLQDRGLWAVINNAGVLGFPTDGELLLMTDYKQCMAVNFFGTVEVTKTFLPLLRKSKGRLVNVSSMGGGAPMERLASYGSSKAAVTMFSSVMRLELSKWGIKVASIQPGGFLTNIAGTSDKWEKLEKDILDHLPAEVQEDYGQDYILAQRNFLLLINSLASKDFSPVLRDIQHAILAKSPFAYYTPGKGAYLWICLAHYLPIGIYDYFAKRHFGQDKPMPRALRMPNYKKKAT
Method: Recombinant protein obtained from Sf9 insect cells (0.1 μg/ml) is incubated with 20 mM KH2PO4, pH 7.4, 30 nM ^3H-estradiol and 1 mM NAD+ for 30 min at RT in the presence of the potential inhibitor in a concentration of 1 μM or 100 nM. The stock solutions of the compounds are prepared in DMSO so that the final concentration of DMSO in the sample is 1%. After the prescribed incubation time, the reaction is quenched by adding trichloroacetic acid (10% final concentration). The samples are centrifuged in microtitration plates at 400 rpm for 10 min, and the supernatants are charged on a reversed-phase HPLC equipped with a Waters Symmetrie C18 column and
Waters Sentry Guard column. The isocratic HPLC run is performed at RT with a flow rate of 1 ml/min and acetonitrile/water 48:52 as the eluent. The radioactivity was measured by means of a Packard Flow Scintillation Analyzer. The percent inhibition was calculated by means of the formulas stated above.

[1] = CaCo-2 assay (transport experiments); format: in vitro ADME; details: human, Caco-2; initial donor concentration 50 μM
Method: (§1) Four reference compounds (atenolol, testosterone, ketoprofene and erythromycin) were employed in each assay for evaluating the transport properties of the CaCo-2 cells. The initial concentration of the compounds in the donor compartment was 50 μM (in buffer with 1% ethanol or DMSO). […] For glycoprotein P (P-gp) studies, bidirectional experiments were performed. The absorptive and secretory permeabilities (Papp(a-b) and Papp(b-a)) were determined. Thus, erythromycin was used as a substrate, and verapamil was used as an inhibitor of P-gp. Each experiment was performed in triplicate. The integrity of the monolayer was determined by means of TEER (transepithelial electric resistance) and the permeability for each assay was determined using Lucifer Yellow. All samples of the CaCo-2 transport experiments were analyzed by means of LC/MS/MS after dilution with buffer (1:1 with 2% acetic acid).

CaCo-2 cells = test: CaCo-2 assay (transport experiments); format: in vitro ADME; details: for Permeability: class in words; for final basolateral concentration [μM ± SD]: initial donor concentration 50 μM
Method: as §1

CYP2D6 = CYP2D6 (Homo sapiens (Human), UniProt P10635); test: P450 inhibition assay CYP2D6; format: biochemical; details: read-out: IC50 (mean ± SD) [μM] CYP2D6
Sequence of CYP2D6 (P10635 whole entry): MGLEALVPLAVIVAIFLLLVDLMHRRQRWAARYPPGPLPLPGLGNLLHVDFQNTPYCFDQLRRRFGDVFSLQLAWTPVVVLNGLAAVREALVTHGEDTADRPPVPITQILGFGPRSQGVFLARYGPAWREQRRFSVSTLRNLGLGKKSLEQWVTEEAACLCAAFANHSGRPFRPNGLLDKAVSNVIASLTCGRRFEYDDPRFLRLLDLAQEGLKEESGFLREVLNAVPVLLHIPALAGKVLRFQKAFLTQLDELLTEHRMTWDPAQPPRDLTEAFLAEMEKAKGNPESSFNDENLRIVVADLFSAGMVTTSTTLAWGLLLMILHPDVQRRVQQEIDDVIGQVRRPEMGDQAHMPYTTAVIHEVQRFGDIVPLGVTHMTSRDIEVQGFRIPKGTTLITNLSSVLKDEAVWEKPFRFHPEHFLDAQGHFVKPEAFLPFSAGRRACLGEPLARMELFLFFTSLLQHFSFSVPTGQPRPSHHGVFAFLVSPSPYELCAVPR

CYP3A4 = CYP3A4 (Homo sapiens (Human), UniProt P08684); test: P450 inhibition assay CYP3A4; format: biochemical; details: read-out: IC50 (mean ± SD) [μM] CYP3A4
Sequence of CYP3A4 (P08684 whole entry): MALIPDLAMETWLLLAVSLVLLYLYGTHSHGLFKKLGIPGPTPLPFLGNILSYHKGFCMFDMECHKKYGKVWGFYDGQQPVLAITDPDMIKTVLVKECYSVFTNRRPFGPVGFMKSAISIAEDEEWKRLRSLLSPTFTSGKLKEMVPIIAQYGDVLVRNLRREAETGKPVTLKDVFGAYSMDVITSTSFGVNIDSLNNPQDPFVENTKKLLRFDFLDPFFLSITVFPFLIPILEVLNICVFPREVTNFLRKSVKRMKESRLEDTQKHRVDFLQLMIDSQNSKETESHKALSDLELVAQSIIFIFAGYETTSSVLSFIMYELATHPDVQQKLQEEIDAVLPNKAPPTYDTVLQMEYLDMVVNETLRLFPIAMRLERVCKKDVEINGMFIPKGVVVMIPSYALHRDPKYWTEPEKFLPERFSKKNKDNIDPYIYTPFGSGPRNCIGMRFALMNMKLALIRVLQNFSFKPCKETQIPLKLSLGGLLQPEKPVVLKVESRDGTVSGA

[2] = In vivo pharmacokinetics (rat), single oral administration; details: single oral administration 50 mg/kg, male Wistar rats
CYP1A2 = CYP1A2 (Homo sapiens (Human), UniProt P05177); test: P450 inhibition assay CYP1A2
Sequence of CYP1A2 (P05177 whole entry): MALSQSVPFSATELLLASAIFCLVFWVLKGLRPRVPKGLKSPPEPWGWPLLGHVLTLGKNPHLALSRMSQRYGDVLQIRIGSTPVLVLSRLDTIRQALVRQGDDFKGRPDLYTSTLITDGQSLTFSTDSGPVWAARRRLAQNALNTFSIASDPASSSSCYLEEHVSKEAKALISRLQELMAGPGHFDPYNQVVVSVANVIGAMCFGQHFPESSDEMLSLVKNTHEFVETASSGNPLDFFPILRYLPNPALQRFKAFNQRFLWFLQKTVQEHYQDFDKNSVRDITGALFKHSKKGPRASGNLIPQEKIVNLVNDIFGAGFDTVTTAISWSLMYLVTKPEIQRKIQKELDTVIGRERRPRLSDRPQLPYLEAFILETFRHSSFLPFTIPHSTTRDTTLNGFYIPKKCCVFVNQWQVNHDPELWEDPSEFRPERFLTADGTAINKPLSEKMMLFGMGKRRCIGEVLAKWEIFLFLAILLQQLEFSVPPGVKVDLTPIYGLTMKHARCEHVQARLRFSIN

CYP2B6 = CYP2B6 (Homo sapiens (Human), UniProt P20813); test: P450 inhibition assay CYP2B6
Sequence of CYP2B6 (P20813 whole entry): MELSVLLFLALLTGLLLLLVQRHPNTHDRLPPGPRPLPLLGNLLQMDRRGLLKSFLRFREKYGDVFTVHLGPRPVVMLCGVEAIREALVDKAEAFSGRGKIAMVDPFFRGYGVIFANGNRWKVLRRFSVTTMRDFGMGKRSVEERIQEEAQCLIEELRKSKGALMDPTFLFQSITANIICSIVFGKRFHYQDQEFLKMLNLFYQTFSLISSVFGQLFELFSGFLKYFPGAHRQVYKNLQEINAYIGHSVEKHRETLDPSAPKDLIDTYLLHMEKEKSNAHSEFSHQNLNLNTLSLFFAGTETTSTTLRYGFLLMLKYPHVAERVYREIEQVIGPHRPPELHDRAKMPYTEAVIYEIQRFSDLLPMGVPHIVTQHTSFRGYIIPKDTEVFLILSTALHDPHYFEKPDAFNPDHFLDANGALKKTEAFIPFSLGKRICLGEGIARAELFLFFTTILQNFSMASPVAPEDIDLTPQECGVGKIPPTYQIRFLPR

CYP2C9 = CYP2C9 (Homo sapiens (Human), UniProt P11712); test: P450 inhibition assay CYP2C9
Sequence of CYP2C9 (P11712 whole entry): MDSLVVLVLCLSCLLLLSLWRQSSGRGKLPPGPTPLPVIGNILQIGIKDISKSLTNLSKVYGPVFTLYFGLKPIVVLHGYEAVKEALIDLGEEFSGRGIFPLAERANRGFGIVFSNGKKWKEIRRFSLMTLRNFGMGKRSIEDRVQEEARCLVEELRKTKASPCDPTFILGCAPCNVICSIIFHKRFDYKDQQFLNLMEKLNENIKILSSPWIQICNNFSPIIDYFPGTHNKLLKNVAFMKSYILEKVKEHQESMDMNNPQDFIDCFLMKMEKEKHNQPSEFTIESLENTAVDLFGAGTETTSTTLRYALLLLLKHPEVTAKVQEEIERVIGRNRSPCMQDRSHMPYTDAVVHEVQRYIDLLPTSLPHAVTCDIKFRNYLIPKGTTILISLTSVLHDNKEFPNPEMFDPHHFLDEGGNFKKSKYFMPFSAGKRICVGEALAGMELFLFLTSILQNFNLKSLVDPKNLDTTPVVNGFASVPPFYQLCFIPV

CYP2C19 = CYP2C19 (Homo sapiens (Human), UniProt P33261); test: P450 inhibition assay CYP2C19
Sequence of CYP2C19 (P33261 whole entry): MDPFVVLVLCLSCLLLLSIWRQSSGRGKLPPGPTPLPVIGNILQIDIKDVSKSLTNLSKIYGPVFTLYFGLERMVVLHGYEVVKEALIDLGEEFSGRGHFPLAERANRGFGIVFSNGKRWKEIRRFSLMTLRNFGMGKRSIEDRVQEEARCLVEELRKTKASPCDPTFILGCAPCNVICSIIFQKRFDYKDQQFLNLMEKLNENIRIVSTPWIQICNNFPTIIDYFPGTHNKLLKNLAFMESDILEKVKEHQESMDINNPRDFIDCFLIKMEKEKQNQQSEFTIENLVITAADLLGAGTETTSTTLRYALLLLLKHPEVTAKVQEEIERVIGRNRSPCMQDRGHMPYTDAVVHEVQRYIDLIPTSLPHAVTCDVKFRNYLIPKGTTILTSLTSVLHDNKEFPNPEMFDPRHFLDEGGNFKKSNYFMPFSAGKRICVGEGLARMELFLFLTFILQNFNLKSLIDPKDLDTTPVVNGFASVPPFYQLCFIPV

[3] = Test for metabolic stability, liver microsomes; details: for Slope (−k): rat liver microsomes; for half-life / microsomal CLint: rat, pH 7.4
Method: The assay was performed with liver microsomes of rats.
The incubation solution (180 μl) consists of 90 μl of a microsomal suspension of 0.33 mg/ml protein in 100 mM phosphate buffer, pH 7.4, with 90 μl NADP-regenerating system (NADP: 1 mM, glucose-6-phosphate 5 mM, glucose-6-phosphate dehydrogenase: 5 U/ml, MgCl2 5 mM).
The reaction is started by adding 20 μl of the compound to be tested in 20% ACN to the microsome/buffer mixture preincubated at 37° C. After 0, 15, 30 and 60 minutes, 200 μl of sample solution is withdrawn and subjected to ACN precipitation. The isolation of the compounds is effected by adding 200 μl ACN that contains the internal standard (1 μM) to 200 μl of sample solution and calibration standard. After shaking for 10 s and centrifugation at 4000 g, an aliquot of the supernatant is subjected to LC-MS/MS. Two controls are included, namely a positive control with 7-ethoxycoumarin as a reference to verify the microsomal enzyme activity, and a negative control in which microsomes are used that were heated for 25 minutes without a regenerating system, in order to ensure that the loss of substance is actually due to metabolization.
The amount of compound in a sample is expressed as the percent fraction of the compound remaining as compared to time t=0 (100%). The percent fraction is plotted versus time.

estrogen receptor α = estrogen receptor α (Homo sapiens (Human), UniProt P03372); test: Estrogen receptor binding assay, ERα; details: relative binding affinity (estradiol: 100%)
Sequence of estrogen receptor α (P03372 whole entry): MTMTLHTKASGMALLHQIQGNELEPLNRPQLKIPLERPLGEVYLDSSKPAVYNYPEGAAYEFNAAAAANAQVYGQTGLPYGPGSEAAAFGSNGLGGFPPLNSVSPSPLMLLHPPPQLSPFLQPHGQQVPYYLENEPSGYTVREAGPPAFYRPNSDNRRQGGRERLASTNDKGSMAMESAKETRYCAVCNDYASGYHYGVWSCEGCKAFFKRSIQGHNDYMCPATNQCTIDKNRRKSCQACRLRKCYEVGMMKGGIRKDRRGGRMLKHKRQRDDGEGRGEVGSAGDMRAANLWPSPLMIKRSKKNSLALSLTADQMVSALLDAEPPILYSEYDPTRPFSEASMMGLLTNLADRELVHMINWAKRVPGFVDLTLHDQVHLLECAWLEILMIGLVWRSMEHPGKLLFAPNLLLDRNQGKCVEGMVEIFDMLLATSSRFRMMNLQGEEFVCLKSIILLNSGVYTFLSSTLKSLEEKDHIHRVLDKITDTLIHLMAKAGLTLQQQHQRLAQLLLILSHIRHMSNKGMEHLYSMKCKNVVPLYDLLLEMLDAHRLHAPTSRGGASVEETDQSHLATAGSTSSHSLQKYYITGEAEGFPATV

estrogen receptor β = estrogen receptor β (Homo sapiens (Human), UniProt Q92731); test: Estrogen receptor binding assay, ERβ; details: relative binding affinity (estradiol: 100%)
Sequence of estrogen receptor β (Q92731 whole entry): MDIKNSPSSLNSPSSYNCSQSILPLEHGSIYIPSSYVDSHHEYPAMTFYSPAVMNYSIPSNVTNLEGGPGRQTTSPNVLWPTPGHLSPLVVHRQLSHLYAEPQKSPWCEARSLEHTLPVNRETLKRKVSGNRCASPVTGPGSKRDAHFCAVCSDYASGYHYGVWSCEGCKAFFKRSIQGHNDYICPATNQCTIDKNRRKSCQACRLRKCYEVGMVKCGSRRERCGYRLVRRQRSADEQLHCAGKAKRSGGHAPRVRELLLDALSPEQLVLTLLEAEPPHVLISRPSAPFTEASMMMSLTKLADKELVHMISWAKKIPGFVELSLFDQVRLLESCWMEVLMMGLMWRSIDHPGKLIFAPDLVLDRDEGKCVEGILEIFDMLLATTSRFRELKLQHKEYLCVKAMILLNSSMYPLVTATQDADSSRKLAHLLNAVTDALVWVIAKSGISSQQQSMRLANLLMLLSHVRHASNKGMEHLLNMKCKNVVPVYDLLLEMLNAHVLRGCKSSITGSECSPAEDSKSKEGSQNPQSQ

[4] = In vivo pharmacokinetics (rat), cassette dosing method; details: cassette dosing perorally 10 mg/kg, male Wistar rats
From the text: Labrasol/water 1/1). The plasma profiles were established by means of LC-MS/MS.

Row | SMILES | inhibition at 0.1 µM (17β-HSD2; inhibitor 100 nM) [%] | inhibition at 1 µM (17β-HSD2; inhibitor 1 μM) [%] | Papp at 180 min, 50 μM [1] [nm/s] | mass balance [% ± SD] (CaCo-2 cells) [%] | Permeability (CaCo-2 cells) | final basolateral concentration [μM ± SD] (CaCo-2 cells) [µM] | IC50 (CYP2D6) [µM] | IC50 (CYP3A4) [µM] | IC50 (CYP1A2) [µM] | Slope (−k) [3] | microsomal CLint ([3]; liver microsomes) [µL/min/mg] | inhibition at 1 µM (17β-HSD1; inhibitor 1 μM) [%] | inhibition at 0.1 µM (17β-HSD1; inhibitor 100 nM) [%] | further results
1 | Oc1cccc(-c2ccc3c(-c4cccnc4)c(O)ccc3c2)c1 [Compound 59, 6-(3-Hydroxyphenyl)-1-(pyridin-3-yl)naphthalene-2-ol] | 66.1 | 90.3 | 138 | 29.9 ± 2.4 | high | 11.0 ± 0.5 | 22.9 ± 1.85 | 0.221 ± 0.002 | 0.014 | −0.051 | 340 |  |  | inhibition at 1 µM (17β-HSD1): 92.3%; inhibition at 0.1 µM (17β-HSD1): 87.4%; AUC(0-t) ([2]; rat, plasma): 0.203 µg·h/mL; Tmax ([2]; rat, plasma): 2 h; AUC(0-inf) ([2]; rat, plasma, extrapolated to ∞): 0.203 µg·h/mL; t1/2z [2]: 1.54 h; tz [2]: 8.0 h; IC50 (CYP2B6; read-out: IC50 (mean ± SD) [μM] CYP2B6): 5.34 ± 0.391 µM; IC50 (CYP2C9; read-out: IC50 (mean ± SD) [μM] CYP2C9): 0.15 ± 0.03 µM; IC50 (CYP2C19; read-out: IC50 (mean ± SD) [μM] CYP2C19): 0.88 ± 0.03 µM; half-life ([3]; liver microsomes): 0.227 h
2 | COc1ccc(-c2c(O)ccc3cc(-c4cccc(O)c4)ccc23)cn1 [Compound 62, 6-(3-Hydroxyphenyl)-1-(6-methoxypyridin-3-yl)naphthalene-2-ol] |  |  |  |  |  |  | 40 ± 0.08 | 1.07 ± 0.05 |  | −0.014 | 92.8 | 89.2 | 85.9 | inhibition at 0.1 µM (17β-HSD2): 24.3%; inhibition at 1 µM (17β-HSD2): 67.2%; IC50 (CYP2B6): 10.4 ± 0.14 µM
3 | Oc1cccc(-c2ccc3cc(O)ccc3c2)c1 [Compound 19, 6-(3-Hydroxyphenyl)-2-naphthol] | 12.4 | 16.6 | 89 | 37.5 ± 3.0 | moderate | 6.5 ± 0.2 | 32.6 ± 0.72 |  |  | −0.055 |  | 94 | 91.4 | RBA ERα [%] (estrogen receptor α): 0.23%; RBA ERβ [%] (estrogen receptor β): 0.80%; T1/2z [4]: 4.4 h; tz [4]: 24.0 h; AUC(0-t) ([4]; rat, plasma, po): 29.7 µg·h/mL; Tmax ([4]; rat, plasma, po): 6 h; AUC(0-inf) ([4]; rat, plasma, po, extrapolated to ∞): 30.7 µg·h/mL; half-life ([3]; microsomes): 0.21 h; microsomal CLint ([3]; microsomes): 367 µL/min/mg
4 | N#Cc1cc(O)cc2ccc(-c3cccc(O)c3)cc12 [Compound 54, 3-Hydroxy-7-(3-hydroxyphenyl)-1-naphthonitrile] |  |  | 44 | 30.5 ± 3.1 | moderate | 3.7 ± 0.3 |  | 2.05 ± 0.18 | 0.259 ± 0.01 |  |  | 94 | 83 | IC50 (CYP2C9): 0.224 ± 0.002 µM; IC50 (CYP2C19): 1.21 ± 0.19 µM
